Melting point data for 36 compounds are collected here from a melting point compilation (Tetko et al.; mined from patent text by program, amines drawn as free bases though some values may be those of a salt).

Structures are written as SMILES.

The term melting point denotes the temperature of the solid-liquid transition. With `COc1ccc(C(=O)C(CCc2cccc(OC)c2)c2ccccc2)cc1` (stereo unspecified), the melting point was 79 to 85 °C. For `Cc1ccc(-c2ccc(Cl)cc2)cc1C#CC(C)(C)OCC(=O)O`, the melting point was determined as 125 °C. On to `CC(C(=O)O)c1ccc2cc(OCc3nc4ccccc4s3)ccc2c1` (stereo unspecified), for which the melting point is 169 to 171 °C. As for `COc1ccc(C(=O)c2cc3ccccc3o2)c(Cl)c1Cl`, the melting point amounted to 148 °C. As for `CCCCCCCCn1c2cc(OC)ccc2c2ccc(OC)cc21`, the melting point lay within 63 to 64 °C. `CN(C)c1nc(=O)c(C(C)(C)C)nn1N` returned a melting point of 168 to 169 °C. For the compound `CCCC(=O)Nc1c([N+](=O)[O-])c(C(C)(C)C)nn1-c1c(Cl)cc(C(F)(F)F)cc1Cl`, the melting point lay in the range of 152 to 154 °C. The compound `ClC1=NC(C2CC2)Nc2cscc21` (stereo unspecified) came in with a melting point of 86.5 to 88.5 °C. In turn, `COc1ccc2ncc(Cl)c(OC[C@@H]3CC[C@@H](NC(=O)OC(C)(C)C)CO3)c2c1` yielded a melting point of 173 °C.

Compound `COc1cc(-n2nc3n(c2=S)CCSC3)c(Cl)cc1Cl` returned a melting point of 131 to 135 °C. Compound `CC(O)(CCN1CCOCC1)c1ccc(-c2ccc(Br)cc2)cc1` (stereo unspecified) came in with a melting point of 97 to 99 °C. For `CNC(=O)c1cc(Oc2ccc(N)c(F)c2)ccn1` the value was 140 to 141 °C. Then `COc1ccc(C(=O)c2ccc(-c3nc4ccccc4o3)cc2)c(O)c1`, with 177 to 179 °C; and `COc1ccc(C=C2c3ccccc3C(=NOCC(=O)NCC(C)(C)SN=O)c3ccccc32)cc1O`, with 143 to 145 °C.

As for `O=C1NC(=O)C(Sc2ccc(Cl)cc2)S1` (stereo unspecified), the melting point was 109 to 110 °C. Turning to `CCc1cccc(-c2nc(=O)c3ccccc3s2)n1`, the melting point lay in the range of 150 to 151 °C. Compound `O=C(Nc1ccc(SC(F)(F)F)c(Cl)c1)c1cc(Cl)c2ccccc2c1O` came in with a melting point of 148 to 149 °C. On to `CCC(=O)c1ccc2cc(O)ccc2c1`, for which the melting point fell in the range of 158 to 159 °C.

`CCCc1c(OCCCOc2ccc(C(=O)O)cc2Br)ccc(C(C)=O)c1OC(=O)CC`: the melting point was 136 to 137 °C. `CCOC(CNC(=S)Nc1ccnn1C)OCC` came in with a melting point of 148 to 149 °C. Compound `COc1ccc(-n2cncc2-c2ccccc2)cc1` returned a melting point of 106 °C. The compound `C=CCn1c(=O)[nH]c(=O)n(-c2cc(N3C(=O)C4=C(CCCC4)C3=O)c(F)cc2Cl)c1=O` gave a melting point of 130 to 145 °C. For the compound `CCOC(=O)CCCCCN(NS(=O)(=O)c1ccc(Cl)cc1)C(=O)Nc1cc(OC)cc(C(C)(C)C)c1O`, the melting point fell in the range of 69 to 70 °C. For `C1=C(c2cccc(CNCCOc3cccc4c3OCC4)c2)CCC1`, the melting point was found to be 118 °C. Compound `CCc1ccsc1C(=O)O` had a melting point of 106 to 109 °C. For the compound `N#Cc1ccc(N2CCC(O)C2)c2ccccc12` (stereo unspecified), the melting point is 138 to 139 °C.

`CCOc1nc(Cl)ncc1F`: the melting point lay within 30 to 32 °C.

On to `Cc1csc2c1-n1cccc1C2=NO`, for which the melting point stood at 198 °C.

In turn, `NC(=O)CCc1cc(-c2ccncc2)sc1-c1ccncc1` yielded a melting point of 196 °C. Turning to `CSc1ccc(NC(C#N)c2ccc(C)cc2)cc1` (stereo unspecified), the melting point was in the range of 186 to 187 °C. In turn, `O=c1[nH]c(=O)n(CCCN2CCN(C(c3ccccc3)c3ccccc3)CC2)c2ccccc12` gave a melting point of 261 to 264 °C. For `CC(C)(C)OC(=O)N1CCC(c2c[nH]cn2)CC1`, the melting point is 198 °C. `CC(=O)NC1C(O[Si](C)(C)C(C)(C)C)C=C(C(=O)O)OC1C(OCC(=O)O)C1COC(C)(C)O1` (stereo unspecified) returned a melting point of 130 °C. `CC1CCc2cc(F)cc3c(=O)c(C(=O)Cl)cn1c23` (stereo unspecified) had a melting point of 183 to 186 °C. Then `CCCCCCCCCCCCCCCCCC(=O)NCC(COCCCCCCCCCCCCCCCC)COCc1ccccc1` (stereo unspecified), with 56 to 57 °C. For `COc1ccc(-c2cc(C(=O)NCCCCCCCCc3ccccc3)cc(-c3cccc(C(F)(F)F)c3)c2OCC(=O)O)cc1`, the melting point fell in the range of 139 to 144 °C.
